This note sets out measurements from US20110218190A1, “THERAPEUTIC USES OF AMPA RECEPTOR MODULATORS FOR TREATMENT OF MOTOR DYSFUNCTION” (THE REGENTS OF THE UNIVERSITY OF CALIFORNIA, priority 2008, published 2011).

The test system of test [1] is hypoglossal (XII) nerve discharge, neonatal rat medullary slice preparation. In words: Integrated hypoglossal (XII) nerve recordings in the in vitro neonatal rat medullary slice preparation. The conditions noted are these: for ∫XII nerve discharge amplitude: longer-term (>2 hours) bath application; for long-lasting potentiation of ∫XII nerve amplitude: 1-12 hours after. How it is done: (§1) Experiments were performed on medullary slice preparations from 0-4 day-old neonatal rats that retain functional respiratory networks. Details of the preparation have been previously described. See Funk et al. (1993) J Neurophysiol 70:1497-1515. Briefly, neonatal rats were anesthetized with isoflurane, decerebrated, and the neuraxis isolated by dissection in artificial cerebrospinal fluid (ACSF) [(in mM) 128 NaCl, 3.0 KCl, 1.5 CaCl2, 1.0 mgSO4, 21 NaHCO3, 0.5 Na2HPO4, and 30 D-glucose] equilibrated with 95% 02-5% CO2 at 27-28° C. The neuraxis was sectioned with a vibratome in the transverse plane starting from the rostral medulla to within 150 μm nucleus ambiguous (Smith, J. C. et al., (1991) Science 254(5032):726-729. A single, 700 μm thick transverse slice was then cut, transferred to a 1.5 ml recording chamber and held in place by stainless steel harp. The slice was continuously superfused (≧3 ml/min) by ACSF with extracellular K^+ concentration raised to 9 mM to maintain rhythmic output.
Respiratory motor output was recorded from cut ends of XII nerve roots rectified, filtered and integrated. Peak amplitude was obtained from signals of XII nerve discharge. The activity in individual XII motoneurons was measured via whole-cell voltage-clamp techniques.
Cyclothiazide, CX546, and aniracetam were introduced by bath application to determine the effects of cyclothiazide, CX546, and aniracetam on respiratory activity. Stable respiratory activity was recorded for at least 30 minutes preceding drug application. After removal of the drug, recordings continued for over 12 hours.

Test [2] deals with genioglossus (GG) muscle activity in anesthetized freely breathing rats. In words: Genioglossus EMG and respiratory rate in anesthetized freely breathing rats. The format is in vivo, Sprague-Dawley rats. How it is done: Anesthetized freely breathing rats provide a live animal model for determining effects of AMPA receptor modulators on genioglossus (GG) muscle activity.
Adult Sprague-Dawley rats (˜300 g) were anaesthetized with ketamine (100 mg kg^−1) and xylazine (10 mg kg^−1) injected intraperitoneally. 1-1.5 vol % isoflurane in O2 was inhaled during the experimental stage to provide for stable recordings and continued anesthesia. To measure GG electromyographic activity (EMG), stainless steel wire electrodes were sutured into the muscle. The raw GG EMG signal was rectified filtered and integrated.
Respiratory frequency and tidal volume were measured via pressure transducer attached to the rostral end of a polyethylene cannula that was inserted into the trachea of the anesthetized rat. The animal was freely breathing without the use of any ventilator or other method of respiratory support. These methods were taken in part from those reported in Tan, W., et al. (2008) Nat. Neurosci. 11(5):538-40 and Janczewski, W. A. and Feldman, J. L. (2006) J. Physiol. 570(Pt 2):407-20, incorporated by reference in their entirety.

The next test has as its system snoring. Briefly: Treatment of a patient having snoring. The format is in vivo. The settings on record: about 0.1 to 100 mg/kg body weight. How it is done: A patient is diagnosed as having snoring. This diagnosis is confirmed by the presence of snoring sounds made by the patient during sleep or conditions associated with snoring.
The patient is administered a pharmaceutical formulation of an AMPA receptor modulator. The AMPA receptor modulator is administered to the patient intravenously or orally at a dosage of about 0.1 to 100 mg AMPA receptor modulator/kg body weight as determined by the attending physician. The patient is monitored for reduction or inhibition of snoring and associated symptoms.
The patient is administered a pharmaceutical formulation of an ampakine. The ampakine is administered to the patient intravenously or orally at a dosage of about 0.1 to 100 mg ampakine/kg body weight as determined by the attending physician. The patient is monitored for reduction or inhibition of snoring and associated symptoms.
The patient is administered a pharmaceutical formulation of CX546. CX546 is administered to the patient intravenously or orally at a dosage of about 0.1 to 100 mg CX546/kg body weight as determined by the attending physician. The patient is monitored for reduction or inhibition of snoring and associated symptoms.
The patient is administered a pharmaceutical formulation of aniracetam. Aniracetam is administered to the patient intravenously or orally at a dosage of about 0.1 to 100 mg aniracetam/kg body weight as determined by the attending physician. The patient is monitored for reduction or inhibition of snoring and associated symptoms.
The patient is administered a pharmaceutical formulation of benzothiadiazide. Benzothiadiazide is administered to the patient intravenously or orally at a dosage of about 0.1 to 100 mg benzothiadiazide/kg body weight as determined by the attending physician. The patient is monitored for reduction or inhibition of snoring and associated symptoms.
The patient is administered a pharmaceutical formulation of cyclothiazide. Cyclothiazide is administered to the patient intravenously at a dosage of about 0.1 to 100 mg cyclothiazide/kg body weight as determined by the attending physician. […]

Another test has as its system XII motoneurons. Briefly: Whole-cell voltage-clamp of XII motoneurons in the medullary slice. The conditions noted are these: 90 μM for 15 minutes. In kind it is cell-based, rat. How it is done: as §1
XII motoneurons were selected according to a hierarchy of criteria. Selection criteria for respiratory motoneurons are described by Funk et al. (1993) J Neurophysiol 70:1497-1515. […]
Respiratory motor output was recorded from cut ends of XII nerve roots rectified, filtered and integrated. […] The activity in individual XII motoneurons was measured via whole-cell voltage-clamp techniques.

Another test deals with obstructive sleep apnea. In words: Treatment of a patient having obstructive sleep apnea. The conditions noted are these: about 0.1 to 100 mg/kg body weight. In kind it is in vivo. An excerpt: A patient is diagnosed as having obstructive sleep apnea. This diagnosis is confirmed by the presence of obstructive sleep apnea symptoms, including daytime sleepiness, unintentional sleep episodes, unrefreshing sleep, fatigue, or insomnia; awakening with breath holding, gasping, or choking; reports by a bed partner of loud snoring, breathing interruptions, or both in the patient's sleep; sleep study monitoring that documents >5 episodes of hypopnea and apnea per hour. The patient is administered a pharmaceutical formulation of benzothiadiazide. Benzothiadiazide is administered to the patient orally or intravenously at a dosage of about 0.1 to 100 mg benzothiadiazide/kg body weight as determined by the attending physician. The patient is monitored for reduction or inhibition of obstructive sleep apnea and associated symptoms. […] Cyclothiazide is administered to the patient intravenously at a dosage of about 0.1 to 100 mg cyclothiazide/kg body weight as determined by the attending physician. The patient is monitored for reduction or inhibition of obstructive sleep apnea and associated symptoms. […] Aniracetam is administered to the patient intravenously at a dosage of about 0.1 to 100 mg aniracetam/kg body weight as determined by the attending physician. The patient is monitored for reduction or inhibition of obstructive sleep apnea and associated symptoms.

Setting [3] is: short-duration (1 hour) application, 90 μM, FIG. 2.
The mark [4] stands for this setting: injection into XII motor nucleus (1 μL, 25 mM), 30 minutes post-injection, FIG. 7.
Setting [5] is: local application to the IVth ventricle, FIG. 8A.
The mark [6] stands for this setting: micropipette injection into hypoglossal (XII) motor nucleus, 8 minutes after, FIG. 6.

For the compound `O=C(c1ccc2c(c1)OCCO2)N1CCCCC1` [CX546], in test [1] (1-hour bath application, 90 μM), the “effect on respiratory rate (frequency) in slice” value is “increase in ∫XII nerve discharge and respiration rate that subsides over time with drug removal”. In test [1] (1-hour bath application, 90 μM, FIG. 1B), the “effect on ∫XII nerve discharge” value is “induces an increase in ∫XII nerve discharge and respiration rate that subsides over time with drug removal”. In addition, the “∫XII nerve discharge amplitude” value in test [1] (20 μM, FIG. 5A) was “induces a persistent potentiation of ∫XII nerve discharge amplitude”. The “long-lasting potentiation of ∫XII nerve amplitude” value in test [1] (setting [3]) is “but not CX546 causes long-lasting potentiation”. The “average increase of ∫GG activity compared to control” value in test [2] (intravenous injection into femoral vein, 130 μg/kg, FIG. 9A) is 15%. In test [2] (intravenous injection, 130 μg/kg, FIG. 9B), the respiratory rate result is “no long term changes in respiratory rate”. Further, in test [2] (intravenous injection, 130 μg/kg, no diminution of amplitude), the “duration genioglossus muscle activity remained elevated” value is recorded as “more than 2 hours”. In addition, in the test on snoring, the snoring result is on record as “reduces snoring”.

With `NS(=O)(=O)c1cc2c(cc1Cl)NC(C1CC3C=CC1C3)NS2(=O)=O` (centres unmarked) [cyclothiazide], in test [1] (1-hour bath application, 90 μM), the “effect on respiratory rate (frequency) in slice” value was “minor effects on respiratory rate (frequency)”. Also, in test [1] (1-hour bath application, 90 μM, FIG. 1A), the “potentiation of hypoglossal (∫XII) nerve discharge amplitude” value amounted to 2 fold. For the same compound, the “dose-response of normalized ∫XII nerve amplitude” value in test [1] (1 hour following a 1 hour application of 3, 9, 30, or 90 μM, FIG. 3) is listed as “∫XII nerve amplitude increases as a function of cyclothiazide concentration”. In addition, the “persistence of potentiation of ∫XII nerve discharge amplitude” value in test [1] (after 1-hour bath application, 90 μM, drug removed) is over 12 h. Besides, the “long-lasting potentiation of ∫XII nerve amplitude” value in test [1] (setting [3]) was “causes long-lasting potentiation of ∫XII nerve amplitude”. The “increase of ∫XII nerve output” value in test [1] (short-duration (1 hour) application, 90 μM, group data 1-12 hours after, FIG. 2) was 200-300%. In addition, the “XII motoneuron drive currents” value with XII motoneurons (1 hour post-treatment, FIG. 4A) is “potentiates endogenously generated XII motoneuron drive currents”. For the same compound, in the test with XII motoneurons (control vs 1 hour post-treatment, FIG. 4B), the “XII motoneuron charge transfer and ∫XII nerve peak amplitude” value is “induces XII motoneuron charge transfer and increase of ∫XII nerve amplitude”. In test [2] (setting [4]), the “average increase of ∫GG activity relative to control” value amounted to 300% and the “peak increase of ∫GG activity relative to control” value stood at 600%. In test [2] (setting [5]), the “average increase of ∫GG activity compared to control” value amounted to 50% and the “peak increase of ∫GG activity compared to control” value was 150%. In addition, the respiratory rate entry in test [2] (local application to the IVth ventricle, FIG. 8B) is “without affecting respiratory rate”. Besides, in test [2] (local application to the IVth ventricle, until the end of the experiment), the “duration of elevation of ∫GG activity” value is about 90 min. Moreover, in test [2] (setting [6]), the respiratory frequency result was “does not affect respiratory frequency” and the “∫GG activity” value is listed as “induces an increase in ∫GG activity”. In addition, the “symptoms of obstructive sleep apnea” value with obstructive sleep apnea was “reduces the symptoms of obstructive sleep apnea”. Further, the snoring entry in the test on snoring is given as “reduces snoring”.

In the case of `COc1ccc(C(=O)N2CCCC2=O)cc1` [aniracetam], in test [1] (700 μM, FIG. 5B), the “∫XII nerve discharge amplitude” value is on record as “induces a persistent potentiation of ∫XII nerve discharge amplitude”. The “symptoms of obstructive sleep apnea” value in the test on obstructive sleep apnea was “reduces the symptoms of obstructive sleep apnea”. In addition, in the test on snoring, the snoring result is given as “reduces snoring”.
